pEC50, pIC50: −log10 of the molar value. The source made the active and inactive calls. The calls are words filed in the database; no cut-off is given here.
How the values were obtained:
[1] = biological target: T1, Macrophage colony-stimulating factor 1 receptor (Homo sapiens, UniProt P07333); assay: Inhibition of human recombinant GST-CSF1R (residues L534 to C972) expressed in Sf9 insect cells using poly(Glu,Tyr) as substrate incubated for 20 mins by ATP Kinase Glo assay
[2] = biological target: T2, Aurora kinase A (Homo sapiens) (UniProt O14965); assay: Inhibition of recombinant GST-AURKA (residues Ser123 to Ser401) (unknown origin) expressed in Sf9 insect cells using tetra(-LRRASLG) peptide as substrate at 1 uM incubated for 90 mins by ATP Kinase Glo assay
T2 sequence (whole entry): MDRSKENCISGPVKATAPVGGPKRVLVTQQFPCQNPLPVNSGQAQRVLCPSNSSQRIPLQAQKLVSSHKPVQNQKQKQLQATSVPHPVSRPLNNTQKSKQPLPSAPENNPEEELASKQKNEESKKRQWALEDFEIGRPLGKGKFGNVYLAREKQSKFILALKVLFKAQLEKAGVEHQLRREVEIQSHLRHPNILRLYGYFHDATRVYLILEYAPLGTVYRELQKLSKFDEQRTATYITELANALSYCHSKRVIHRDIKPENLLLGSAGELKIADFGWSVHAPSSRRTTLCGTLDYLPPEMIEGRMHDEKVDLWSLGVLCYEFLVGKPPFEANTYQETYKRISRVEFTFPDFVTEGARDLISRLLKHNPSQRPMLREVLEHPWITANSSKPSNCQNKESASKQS

Aurora kinase B [3] = biological target: T3, Aurora kinase B (Homo sapiens, UniProt Q96GD4); assay: Inhibition of human recombinant full length GST-AURKB using tetra(-LRRASLG) peptide as substrate at 0.1 uM incubated for 20 mins by ATP Kinase Glo assay; format: biochemical; details: Sf9
T3 sequence (Q96GD4 whole entry, the tested form may be a part): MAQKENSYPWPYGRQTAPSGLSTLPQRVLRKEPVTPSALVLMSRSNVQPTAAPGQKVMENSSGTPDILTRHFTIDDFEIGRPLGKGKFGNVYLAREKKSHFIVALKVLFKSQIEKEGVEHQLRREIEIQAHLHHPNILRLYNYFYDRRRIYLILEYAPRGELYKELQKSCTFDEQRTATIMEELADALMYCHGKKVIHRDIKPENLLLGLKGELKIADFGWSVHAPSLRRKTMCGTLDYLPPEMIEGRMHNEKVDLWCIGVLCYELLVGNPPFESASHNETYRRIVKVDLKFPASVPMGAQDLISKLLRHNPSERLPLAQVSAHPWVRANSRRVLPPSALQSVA

Aurora kinase A = biological target: T4, Aurora kinase A (Homo sapiens, UniProt O14965); assay: Inhibition of recombinant GST-AURKA (residues Ser123 to Ser401) (unknown origin) expressed in Sf9 insect cells using tetra(-LRRASLG) peptide as substrate incubated for 90 mins by ATP Kinase Glo assay
T4 sequence (O14965 whole entry): T2 sequence (whole entry)

Aurora kinase B [4] = biological target: T3, Aurora kinase B; assay: Inhibition of human recombinant full length GST-AURKB using tetra(-LRRASLG) peptide as substrate incubated for 20 mins by ATP Kinase Glo assay; set-up: species or system Sf9
BaF3 = assay: Antiproliferative activity against mouse BaF3 cells transfected with human ETV6-CSF1R assessed as reduction in cell viability measured after 72 hrs by MTS method; details: BaF3, 72 h
NFS-60 = assay: Antiproliferative activity against mouse NFS-60 cells transfected with human ETV6-CSF1R assessed as reduction in cell viability measured after 72 hrs by MTS method; format: functional, cell-based; details: NFS-60, 72 h
[5] = Half life in Sprague-Dawley rat at 5 mg/kg, iv measured up to 24 hrs by LC-MS/MS analysis; format: ADME, organism-based; details: in vivo
[6] = Clearance in Sprague-Dawley rat at 5 mg/kg, iv measured up to 24 hrs by LC-MS/MS analysis; format: ADME, organism-based; details: in vivo
[7] = Volume of distribution at steady state in Sprague-Dawley rat at 5 mg/kg, iv measured up to 24 hrs by LC-MS/MS analysis; format: ADME, organism-based; details: in vivo, read-out: Vdss
[8] = Dose normalized AUC (0 to inf) in Sprague-Dawley rat at 5 mg/kg, iv measured up to 24 hrs by LC-MS/MS analysis; format: ADME, organism-based; details: in vivo
[9] = Half life in Sprague-Dawley rat at 20 to 25 mg/kg, po measured up to 24 hrs by LC-MS/MS analysis; format: ADME, organism-based; details: in vivo, dose 20-25 mg/kg
[10] = Dose normalized Cmax in Sprague-Dawley rat at 20 to 25 mg/kg, po measured up to 24 hrs by LC-MS/MS analysis; format: ADME, organism-based; details: in vivo, dose 20-25 mg/kg
[11] = Tmax in Sprague-Dawley rat at 20 to 25 mg/kg, po measured up to 24 hrs by LC-MS/MS analysis; format: ADME, organism-based; details: in vivo, dose 20-25 mg/kg
[12] = Dose normalized AUC (0 to inf) in Sprague-Dawley rat at 20 to 25 mg/kg, po measured up to 24 hrs by LC-MS/MS analysis; format: ADME, organism-based; details: in vivo, dose 20-25 mg/kg
[13] = Oral bioavailability in Sprague-Dawley rat at 20 to 25 mg/kg measured up to 24 hrs by LC-MS/MS analysis; format: ADME, organism-based; details: in vivo, dose 20-25 mg/kg
BMDM [14] = assay: Growth inhibition of CSF1-induced mouse BMDM cell assessed as inhibition of M2 like macrophage growth incubated for 3 days by WST-8 assay; details: 72 h
BMDM [15] = assay: Growth inhibition of CSF2-induced mouse BMDM cell assessed as inhibition of M1 like macrophage growth for 3 days by WST-8 assay; details: 72 h
Mus musculus [16] = assay: Immunomodulatory activity in mouse MC38 cells inoculated C57BL/6 mouse syngeneic model assessed as increase in M1 to M2 like TAM ratio in tumor at 100 mg/kg, po twice a day for 2 weeks by five days on/two days off schedule relative to control; format: functional, organism-based; details: MC-38
[17] = biological target: T5, Macrophage colony-stimulating factor 1 receptor (Mus musculus) (UniProt P09581); assay: Inhibition of CSF1R phosphorylation in mouse RAW264.7 cells by Western blotting analysis; format: cell-based
T5 sequence (whole entry): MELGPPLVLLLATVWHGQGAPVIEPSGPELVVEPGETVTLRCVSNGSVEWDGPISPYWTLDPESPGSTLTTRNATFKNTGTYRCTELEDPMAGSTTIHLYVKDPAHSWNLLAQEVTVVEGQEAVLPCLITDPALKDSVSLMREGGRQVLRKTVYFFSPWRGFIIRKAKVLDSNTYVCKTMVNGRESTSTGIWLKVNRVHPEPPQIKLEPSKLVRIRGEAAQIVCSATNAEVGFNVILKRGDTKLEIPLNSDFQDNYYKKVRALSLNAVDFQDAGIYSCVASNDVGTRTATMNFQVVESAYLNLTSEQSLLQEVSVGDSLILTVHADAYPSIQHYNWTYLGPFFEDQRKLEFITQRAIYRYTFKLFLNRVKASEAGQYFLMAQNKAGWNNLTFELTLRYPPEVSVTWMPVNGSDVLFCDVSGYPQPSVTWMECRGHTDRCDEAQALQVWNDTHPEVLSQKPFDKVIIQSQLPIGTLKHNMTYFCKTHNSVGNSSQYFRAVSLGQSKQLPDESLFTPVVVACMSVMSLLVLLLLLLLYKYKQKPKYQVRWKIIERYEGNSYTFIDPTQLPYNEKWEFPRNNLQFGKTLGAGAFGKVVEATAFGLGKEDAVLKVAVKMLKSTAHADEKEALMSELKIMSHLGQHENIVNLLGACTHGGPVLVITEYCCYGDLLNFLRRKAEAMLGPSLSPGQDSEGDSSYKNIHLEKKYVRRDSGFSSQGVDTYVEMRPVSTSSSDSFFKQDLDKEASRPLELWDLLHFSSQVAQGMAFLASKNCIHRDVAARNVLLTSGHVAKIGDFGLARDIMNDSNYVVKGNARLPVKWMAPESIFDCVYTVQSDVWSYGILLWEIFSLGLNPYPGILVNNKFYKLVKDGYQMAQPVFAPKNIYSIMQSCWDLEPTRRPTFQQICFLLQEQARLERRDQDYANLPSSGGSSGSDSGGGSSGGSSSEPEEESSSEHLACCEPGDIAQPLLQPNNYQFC

[18] = biological target: T1, Macrophage colony-stimulating factor 1 receptor; assay: Inhibition of CSF1R phosphorylation in human THP-1 cells by Western blotting analysis; format: cell-based
RAW264.7 = assay: Anti-inflammatory activity mouse RAW264.7 cells assessed as inhibition of LPS-induced TNFalpha production by ELISA; format: functional, cell-based
Mus musculus [19] = assay: Immunomodulatory activity in mouse MC38 cells inoculated C57BL/6 mouse syngeneic model assessed as increase in cytotoxic CD8+ T cell to M2 like TAM ratio in tumor at 100 mg/kg, po twice a day for 2 weeks by five days on/two days off schedule relative to control; format: functional, organism-based; details: MC-38
[20] = biological target: Mast/stem cell growth factor receptor Kit (Homo sapiens, UniProt P10721); assay: Inhibition of human c-Kit by Kinomescan method
Sequence of Mast/stem cell growth factor receptor Kit (P10721 whole entry, the tested form may be a part): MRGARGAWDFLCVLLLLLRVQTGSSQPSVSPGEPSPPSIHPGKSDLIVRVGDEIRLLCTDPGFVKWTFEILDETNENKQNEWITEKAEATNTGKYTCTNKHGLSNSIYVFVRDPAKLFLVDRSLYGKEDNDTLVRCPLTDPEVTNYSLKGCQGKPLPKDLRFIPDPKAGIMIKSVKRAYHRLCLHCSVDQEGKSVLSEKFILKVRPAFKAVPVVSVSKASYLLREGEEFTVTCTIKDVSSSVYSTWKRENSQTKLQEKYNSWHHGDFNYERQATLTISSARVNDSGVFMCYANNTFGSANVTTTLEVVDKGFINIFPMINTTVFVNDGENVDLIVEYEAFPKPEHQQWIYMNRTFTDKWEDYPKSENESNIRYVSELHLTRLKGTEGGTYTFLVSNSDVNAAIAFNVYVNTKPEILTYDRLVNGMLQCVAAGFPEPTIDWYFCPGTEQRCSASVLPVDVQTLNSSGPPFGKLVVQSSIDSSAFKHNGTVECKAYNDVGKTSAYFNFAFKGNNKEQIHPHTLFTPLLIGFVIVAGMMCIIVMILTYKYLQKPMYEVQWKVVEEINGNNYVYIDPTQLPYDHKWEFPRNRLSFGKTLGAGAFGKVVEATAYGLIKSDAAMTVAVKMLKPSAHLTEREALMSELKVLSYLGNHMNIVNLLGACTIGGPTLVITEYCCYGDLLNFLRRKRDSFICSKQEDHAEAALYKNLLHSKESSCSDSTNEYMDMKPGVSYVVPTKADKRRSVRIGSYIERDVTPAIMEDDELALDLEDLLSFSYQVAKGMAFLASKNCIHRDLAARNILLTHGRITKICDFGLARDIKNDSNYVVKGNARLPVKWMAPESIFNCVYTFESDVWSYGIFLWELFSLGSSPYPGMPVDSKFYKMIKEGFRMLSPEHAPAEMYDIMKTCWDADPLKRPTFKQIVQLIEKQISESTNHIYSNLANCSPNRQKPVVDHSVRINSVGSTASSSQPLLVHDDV

[21] = biological target: Platelet-derived growth factor receptor alpha (Homo sapiens, UniProt P16234); assay: Inhibition of wild-type human partial length PDGFRalpha (V575 to D1002 residues) expressed in mammalian expression system by Kinomescan method
Sequence of Platelet-derived growth factor receptor alpha (P16234 whole entry, the tested form may be a part): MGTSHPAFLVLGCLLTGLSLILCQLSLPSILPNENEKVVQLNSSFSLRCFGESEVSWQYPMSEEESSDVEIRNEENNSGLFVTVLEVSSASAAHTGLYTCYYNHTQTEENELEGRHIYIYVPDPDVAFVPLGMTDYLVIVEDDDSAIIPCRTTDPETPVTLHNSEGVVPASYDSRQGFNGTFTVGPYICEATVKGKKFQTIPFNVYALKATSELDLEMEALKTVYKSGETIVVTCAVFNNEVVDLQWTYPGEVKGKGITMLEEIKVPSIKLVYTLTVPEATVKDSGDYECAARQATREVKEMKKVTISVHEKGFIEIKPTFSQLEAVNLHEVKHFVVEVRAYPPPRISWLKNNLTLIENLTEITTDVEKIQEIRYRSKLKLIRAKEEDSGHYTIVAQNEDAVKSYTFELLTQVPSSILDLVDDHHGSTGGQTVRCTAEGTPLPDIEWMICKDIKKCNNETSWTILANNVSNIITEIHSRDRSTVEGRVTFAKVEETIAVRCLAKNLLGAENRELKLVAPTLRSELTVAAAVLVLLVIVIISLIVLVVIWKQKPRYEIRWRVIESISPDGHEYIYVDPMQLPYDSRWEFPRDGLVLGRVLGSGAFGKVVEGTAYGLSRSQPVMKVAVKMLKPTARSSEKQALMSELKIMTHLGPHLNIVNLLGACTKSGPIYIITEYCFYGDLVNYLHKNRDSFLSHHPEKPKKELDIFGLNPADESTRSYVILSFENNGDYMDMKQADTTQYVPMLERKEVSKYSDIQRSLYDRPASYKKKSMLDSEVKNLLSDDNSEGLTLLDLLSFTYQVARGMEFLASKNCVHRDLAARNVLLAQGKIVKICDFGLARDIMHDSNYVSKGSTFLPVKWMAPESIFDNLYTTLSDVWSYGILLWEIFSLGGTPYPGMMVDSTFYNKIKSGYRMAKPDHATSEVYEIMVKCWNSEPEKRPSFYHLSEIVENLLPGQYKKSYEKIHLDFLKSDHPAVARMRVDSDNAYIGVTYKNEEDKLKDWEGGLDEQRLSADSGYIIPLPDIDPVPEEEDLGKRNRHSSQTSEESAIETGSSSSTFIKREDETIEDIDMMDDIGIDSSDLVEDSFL

[22] = biological target: Platelet-derived growth factor receptor beta (Homo sapiens, UniProt P09619); assay: Inhibition of wild-type human partial length PDGFRbeta (V582 to Y1009 residues) expressed in bacterial expression system by Kinomescan method
[23] = biological target: Epithelial discoidin domain-containing receptor 1 (Homo sapiens, UniProt Q08345); assay: Inhibition of wild-type human partial length DDR1 (R565 to V876 residues) expressed in bacterial expression system by Kinomescan method
[24] = biological target: T6, Receptor-type tyrosine-protein kinase FLT3 (Homo sapiens, UniProt P36888); assay: Inhibition of wild-type human partial length FLT3 (V592 to Y969 residues) expressed in bacterial expression system by Kinomescan method
T6 sequence (P36888 whole entry): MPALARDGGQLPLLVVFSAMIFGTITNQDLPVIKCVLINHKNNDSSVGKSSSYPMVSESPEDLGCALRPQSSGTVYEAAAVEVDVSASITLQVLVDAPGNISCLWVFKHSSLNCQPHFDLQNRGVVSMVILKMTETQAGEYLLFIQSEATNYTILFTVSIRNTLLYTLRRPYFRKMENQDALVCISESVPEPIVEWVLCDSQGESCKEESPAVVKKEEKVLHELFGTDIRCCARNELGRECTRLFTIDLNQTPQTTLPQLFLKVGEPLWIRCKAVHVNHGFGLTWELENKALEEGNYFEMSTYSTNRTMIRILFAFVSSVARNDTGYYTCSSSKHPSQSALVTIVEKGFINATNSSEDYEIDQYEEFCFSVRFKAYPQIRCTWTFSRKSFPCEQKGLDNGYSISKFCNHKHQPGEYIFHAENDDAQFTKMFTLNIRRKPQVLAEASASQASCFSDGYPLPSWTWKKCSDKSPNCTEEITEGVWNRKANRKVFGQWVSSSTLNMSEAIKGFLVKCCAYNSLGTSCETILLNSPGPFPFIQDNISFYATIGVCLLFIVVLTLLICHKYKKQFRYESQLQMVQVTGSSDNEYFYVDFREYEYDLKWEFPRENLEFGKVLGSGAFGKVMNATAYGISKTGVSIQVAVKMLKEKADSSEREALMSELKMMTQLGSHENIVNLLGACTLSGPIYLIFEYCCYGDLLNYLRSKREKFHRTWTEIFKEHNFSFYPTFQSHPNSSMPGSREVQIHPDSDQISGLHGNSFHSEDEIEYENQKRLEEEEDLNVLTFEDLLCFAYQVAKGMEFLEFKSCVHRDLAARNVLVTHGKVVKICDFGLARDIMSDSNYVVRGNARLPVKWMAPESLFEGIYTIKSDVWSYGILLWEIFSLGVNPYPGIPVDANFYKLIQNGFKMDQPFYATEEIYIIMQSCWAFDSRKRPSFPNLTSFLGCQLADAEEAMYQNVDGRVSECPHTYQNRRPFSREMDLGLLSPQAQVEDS

Aurora kinase B [25] = biological target: T3, Aurora kinase B; assay: Inhibition of wild-type human partial length AURKB (D25 to A303 residues) expressed in mammalian expression system by Kinomescan method
[26] = biological target: Serine/threonine-protein kinase PAK 3 (Homo sapiens, UniProt O75914); assay: Inhibition of wild-type human full length PAK3 (M1 to R544 residues) expressed in bacterial expression system by Kinomescan method
[27] = biological target: Vascular endothelial growth factor receptor 2 (Homo sapiens, UniProt P35968); assay: Inhibition of wild-type human partial length VEGFR2 (R787 to P1253 residues) expressed in mammalian expression system by Kinomescan method
Sequence of Vascular endothelial growth factor receptor 2 (P35968 whole entry, the tested form may be a part): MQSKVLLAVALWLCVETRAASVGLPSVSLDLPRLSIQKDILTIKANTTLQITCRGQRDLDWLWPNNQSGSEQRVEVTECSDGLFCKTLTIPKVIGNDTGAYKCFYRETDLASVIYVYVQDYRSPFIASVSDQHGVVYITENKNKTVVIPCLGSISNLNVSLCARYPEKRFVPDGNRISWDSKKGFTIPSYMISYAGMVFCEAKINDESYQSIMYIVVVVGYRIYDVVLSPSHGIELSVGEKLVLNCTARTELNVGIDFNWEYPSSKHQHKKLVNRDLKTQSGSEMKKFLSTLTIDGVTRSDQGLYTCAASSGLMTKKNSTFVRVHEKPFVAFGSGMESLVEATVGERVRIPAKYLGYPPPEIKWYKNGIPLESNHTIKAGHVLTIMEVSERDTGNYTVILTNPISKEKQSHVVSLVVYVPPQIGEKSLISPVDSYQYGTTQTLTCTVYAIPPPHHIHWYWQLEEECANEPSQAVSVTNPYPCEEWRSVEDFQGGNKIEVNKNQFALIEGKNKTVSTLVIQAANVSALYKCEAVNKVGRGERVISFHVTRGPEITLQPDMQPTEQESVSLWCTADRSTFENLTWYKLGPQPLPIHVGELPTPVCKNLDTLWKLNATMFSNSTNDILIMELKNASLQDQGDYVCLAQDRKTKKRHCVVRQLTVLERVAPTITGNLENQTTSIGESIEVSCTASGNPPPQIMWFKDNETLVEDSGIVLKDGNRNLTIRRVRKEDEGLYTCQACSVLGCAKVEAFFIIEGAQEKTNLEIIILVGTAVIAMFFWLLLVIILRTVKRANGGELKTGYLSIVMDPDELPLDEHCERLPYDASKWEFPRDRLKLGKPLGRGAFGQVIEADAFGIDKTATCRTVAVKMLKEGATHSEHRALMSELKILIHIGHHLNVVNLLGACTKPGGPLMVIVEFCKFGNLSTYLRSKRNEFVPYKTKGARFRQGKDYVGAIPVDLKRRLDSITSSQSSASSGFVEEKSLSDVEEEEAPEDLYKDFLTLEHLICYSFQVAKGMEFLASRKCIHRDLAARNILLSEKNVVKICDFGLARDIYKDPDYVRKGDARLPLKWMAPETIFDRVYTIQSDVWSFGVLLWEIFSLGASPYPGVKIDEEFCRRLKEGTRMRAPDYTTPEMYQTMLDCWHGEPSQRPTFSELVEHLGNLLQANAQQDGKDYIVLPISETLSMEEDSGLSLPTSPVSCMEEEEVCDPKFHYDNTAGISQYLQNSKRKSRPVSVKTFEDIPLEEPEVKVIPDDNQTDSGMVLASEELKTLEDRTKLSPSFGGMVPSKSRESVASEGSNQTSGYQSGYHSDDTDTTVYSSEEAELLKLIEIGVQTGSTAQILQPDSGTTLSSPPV

T1 sequence (P07333 whole entry, the tested form may be a part): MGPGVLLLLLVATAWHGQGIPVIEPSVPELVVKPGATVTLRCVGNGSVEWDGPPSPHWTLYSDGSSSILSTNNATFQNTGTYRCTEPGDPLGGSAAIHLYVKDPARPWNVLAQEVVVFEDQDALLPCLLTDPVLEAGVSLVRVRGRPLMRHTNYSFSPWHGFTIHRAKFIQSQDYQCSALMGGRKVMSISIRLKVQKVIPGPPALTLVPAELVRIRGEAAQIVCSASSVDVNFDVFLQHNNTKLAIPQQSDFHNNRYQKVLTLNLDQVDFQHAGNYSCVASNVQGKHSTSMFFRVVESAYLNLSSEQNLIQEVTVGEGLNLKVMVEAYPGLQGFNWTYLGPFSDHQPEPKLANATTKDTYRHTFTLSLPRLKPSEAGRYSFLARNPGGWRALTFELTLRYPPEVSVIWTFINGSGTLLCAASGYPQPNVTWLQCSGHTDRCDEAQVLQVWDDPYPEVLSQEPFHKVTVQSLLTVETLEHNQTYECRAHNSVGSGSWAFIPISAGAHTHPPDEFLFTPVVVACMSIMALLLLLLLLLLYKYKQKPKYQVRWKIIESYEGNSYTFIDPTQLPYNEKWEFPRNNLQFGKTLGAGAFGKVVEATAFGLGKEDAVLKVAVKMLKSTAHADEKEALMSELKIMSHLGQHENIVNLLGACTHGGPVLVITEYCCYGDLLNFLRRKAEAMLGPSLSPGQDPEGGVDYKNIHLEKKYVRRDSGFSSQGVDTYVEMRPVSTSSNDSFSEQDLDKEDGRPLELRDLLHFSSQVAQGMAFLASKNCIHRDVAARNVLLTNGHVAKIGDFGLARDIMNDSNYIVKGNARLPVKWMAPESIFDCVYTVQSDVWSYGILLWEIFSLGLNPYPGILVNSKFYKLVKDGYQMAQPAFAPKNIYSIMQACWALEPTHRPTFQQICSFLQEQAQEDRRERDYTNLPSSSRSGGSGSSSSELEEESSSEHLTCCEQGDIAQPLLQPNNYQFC

Row | Compound | pIC50 [1] | inhibition [2] [%] | inhibition (Aurora kinase B [3]) [%] | pIC50 (Aurora kinase A) | pIC50 (Aurora kinase B [4]) | pEC50 (BaF3) | pEC50 (NFS-60) | half-life [5] [h] | clearance [6] [mL/min/kg] | Vd [7] [L/kg] | AUCt/dose [8] [ng.hr/mL per mg/kg] | half-life [9] [h] | Cmax/dose [10] [ng/mL] | Tmax [11] [h] | AUCt/dose [12] [ng.hr/mL per mg/kg] | bioavailability [13] [%] | pIC50 (BMDM [14]) | pIC50 (BMDM [15]) | further results
1 | COc1ccc(NC(=O)Nc2ccc(Oc3ncnc4cc(N(C)C)ccc34)cc2)cc1 | 7.85 | 23 | 34 | < 5.00 | 7.65 | 7.64 | 7.64 | 1.6 | 5.6 | 0.7 | 2842 | 4 | 10.6 | 2.7 | 91 | 3.2 | – | – | –
2 | CN(C)c1ccc2c(Oc3ccc(NC(=O)NCc4ccc(F)cc4)cc3)ncnc2c1 | 8.08 | 5 | 27 | < 5.00 | – | 7.34 | 7.16 | 3.3 | 12.2 | 1.4 | 1225 | 24.2 | 56 | 0.5 | 89 | 7.3 | – | – | –
3 | FC(F)(F)c1ccc(CNc2ccc(Cc3c[nH]c4ncc(Cl)cc34)cn2)cn1 [PEXIDARTINIB] | – | 63 | – | – | 6.19 | 6.70 | 6.53 | – | – | – | – | – | – | – | – | – | 7.25 | < 5.00 | –
4 | CN(C)c1ccc2c(Oc3ccc(NC(=O)NCc4ccc(C(F)(F)F)nc4)cc3)ncnc2c1 [listing 1 of 2 here] | – | 7 | 16 | – | – | – | – | – | – | – | – | – | – | – | – | – | – | – | Activity (Mus musculus [16]): Active; inhibition [17]: Dose-Dependent Effect; inhibition [18]: Dose-Dependent Effect; inhibition (RAW264.7): Active; Activity (Mus musculus [19]): Active
5 | CN(C)c1ccc2c(Oc3ccc(NC(=O)NCc4ccc(C(F)(F)F)nc4)cc3)ncnc2c1 [listing 2 of 2 here] | 7.84 | – | – | < 5.00 | 5.85 | 7.10 | 7.02 | 2.9 | 4.5 | 0.6 | – | 8.7 | 24 | 5.5 | – | 10 | 7.51 | 5.27 | pIC50 [20]: 8.96; pIC50 [21]: 7.28; pIC50 [22]: 7.50; pIC50 [23]: 7.22; pIC50 [24]: 7.19; pIC50 (Aurora kinase B [25]): 6.65; pIC50 [26]: < 5.05; pIC50 [27]: < 5.05

Reference: ChEMBL document CHEMBL4842383 (J Med Chem, 2021)
